Experimental data taken from patent US10201586B2 (dated 2019).
*1 amine or outer side, *2 acyl side, *3 side chain or, on linkers, in order; H or OH if unused. Where a SMILES comes first, the peptide text is derived from it. Bridges are numbered along the chain shown (N, C = ends). [ ]: non-standard residue; d: D form. The star is where a group is joined. ξ: configuration not given here. Succinimide(1-Et,3-yl) = CCN1C(=O)CC(*)C1=O; Bta = N[C@@H](Cc1csc2ccccc12)C(=O)O; Cysteamide = C(CS[*:3])N[*:1]; Tle = CC(C)(C)[C@H](N)C(=O)O; β3hL = CC(C)C[C@H](N)CC(=O)O; β3hK = NCCCC[C@H](N)CC(=O)O; hCys = N[C@@H](CCS)C(=O)O; Nle = CCCC[C@H](N)C(=O)O; ξβ3hV = CC(C)C(N)CC(=O)O; Aib = CC(C)(N)C(=O)O

What was measured:
[1] = biological target: Tissue Factor Pathway Inhibitor (TFPI) (Homo sapiens, UniProt P10646); experiment: IC50 ELISA | IC50 [nM]
Sequence of Tissue Factor Pathway Inhibitor (TFPI) (P10646 29-304 limits assumed): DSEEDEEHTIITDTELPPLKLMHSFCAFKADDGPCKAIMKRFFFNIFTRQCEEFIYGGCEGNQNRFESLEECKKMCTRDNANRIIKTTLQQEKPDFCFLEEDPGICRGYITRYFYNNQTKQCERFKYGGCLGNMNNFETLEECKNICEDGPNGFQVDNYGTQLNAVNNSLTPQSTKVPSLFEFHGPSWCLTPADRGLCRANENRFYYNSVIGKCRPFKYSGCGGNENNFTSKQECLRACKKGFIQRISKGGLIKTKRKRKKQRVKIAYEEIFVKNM

[2] = biological target: T1, TFPI (Homo sapiens, UniProt P10646); experiment: IC50 Mean (nM]
Target sequence in this assay (P10646 29-304 limits assumed): as above

[3] = biological target: T1, TFPI; experiment: Extrinsic Tenase Inhibition assay | % Inhibition @ 2.5µM
[4] = biological target: T1, TFPI; experiment: % Inhibition @ 2.5µM
[5] = biological target: T1, TFPI; experiment: IC50 [nm]
Target sequence in this assay (P10646 29-304 limits assumed): as above

[6] = plasma stability in human plasma; assay type: in vitro ADME; details: for remaining at 24 h: 24 hour incubation in human plasma, quantitative ELISA

## CC(=O)N[C@@H](Cc1ccccc1)C(=O)N[C@@H](CCC(N)=O)C(=O)N[C@@H](CO)C(=O)N[C@@H](CCCCN)C(=O)N1CCC[C@@H]1C(=O)N[C@@H](CC(N)=O)C(=O)N[C@H](C(=O)N[C@@H](Cc1c[nH]cn1)C(=O)N[C@H](C(=O)N1CCC[C@H]1C(=O)N[C@H](C)C(=O)N[C@@H](Cc1ccc(O)cc1)C(=O)N[C@@H](Cc1csc2ccccc12)C(=O)N[C@@H](CCC(=O)O)C(=O)N[C@@H](CCCNC(=N)N)C(=O)N[C@@H](CC(C)C)C(=O)NC(C)(C)C(=O)N[C@@H]1CSSCCNC(=O)[C@H](CC(C)C)NC(=O)[C@H](CCCCN)NC1=O)C(C)C)C(C)C [JBT2517 | 4232, Ac-FQSKpNVHVPaY-Bta-ERL-Aib-cKL-Cea-] (Ac-FQSK[dP]NVHVP[dA]Y[Bta]ERL[Aib][dC]KL-Cysteamide; disulfide 18-C)
[1]
  IC50: 0.269 µM

## CC(=O)N[C@@H](Cc1ccccc1)C(=O)N[C@@H](CCC(N)=O)C(=O)N[C@@H](CO)C(=O)N[C@@H](CCCCN)C(=O)NCC(=O)N[C@@H](CC(N)=O)C(=O)N[C@H](C(=O)N[C@@H](Cc1ccccc1)C(=O)NC(CC(=O)N[C@@H](Cc1ccccc1)C(=O)NCC(=O)N[C@@H](Cc1ccc(O)cc1)C(=O)N[C@@H](Cc1ccccc1)C(=O)N[C@@H](CCC(=O)O)C(=O)N[C@@H](CCCNC(=N)N)C(=O)N[C@@H](CC(C)C)C(=O)N[C@@H](CCCNC(=N)N)C(=O)N[C@@H](C)C(=O)N[C@@H](CCCCN)C(=O)N[C@@H](CC(C)C)C(N)=O)C(C)C)C(C)C (stereo partly drawn) [JBT0523 | 757] (Ac-FQSKGNVF[ξβ3hV]FGYFERLRAKL-NH2)
[2]
  IC50: > 5 µM

## Ac-SGYASFPLAVQLHVAKRSKEMALARLYYKTS-NH2 (SEQ ID NO: 2008) [JBT0674]
[3]
  Extrinsic Tenase Inhibition assay | % Inhibition @ […]: 5%
[4]
  % Inhibition @ […]: 10%

## CCCC[C@H](NC(=O)CNC(=O)[C@H](CO)NC(=O)[C@H](Cc1ccccc1)NC(=O)[C@H](Cc1c[nH]c2ccccc12)NC(=O)[C@H](CCCCN)NC(C)=O)C(=O)N[C@@H](CCCNC(=N)N)C(=O)N[C@@H](CC(=O)O)C(=O)N[C@@H](CCCC)C(=O)N[C@@H](CCCCN)C(=O)NCC(=O)N[C@H](C(=O)N[C@@H](CCCC)C(=O)N[C@@H](CO)C(=O)N[C@@H](CO)C(=O)N[C@H](C(=O)N[C@@H](Cc1c[nH]c2ccccc12)C(=O)N[C@H](C(=O)N[C@@H](CCCCN)C(=O)N[C@@H](Cc1ccccc1)C(N)=O)C(C)C)C(C)C)[C@@H](C)O [JBT0414 | 1205, Ac-KWFSG-Nle-RD-Nle-KGT-Nle-SSVWVKF-NH2] (Ac-KWFSG[Nle]RD[Nle]KGT[Nle]SSVWVKF-NH2)
[5]
  IC50: 5.69 µM

## CC(=O)N[C@@H](Cc1ccccc1)C(=O)N[C@@H](CCC(N)=O)C(=O)N[C@@H](CO)C(=O)N[C@@H](CCCCN)C(=O)N1CCC[C@@H]1C(=O)N[C@@H](CC(N)=O)C(=O)N[C@H](C(=O)N[C@@H](Cc1c[nH]cn1)C(=O)N[C@H](C(=O)N1CCC[C@H]1C(=O)N[C@@H]1CSSCC[C@@H](C(=O)N[C@@H](CCCNC(=N)N)C(=O)N[C@@H](CC(C)C)C(=O)NC(C)(C)C(=O)N[C@@H](C)C(=O)N[C@@H](CCCCN)C(=O)N[C@@H](CC(C)C)C(N)=O)NC(=O)[C@H](Cc2csc3ccccc23)NC(=O)[C@H](Cc2ccc(O)cc2)NC1=O)C(C)C)C(C)C [JBT2518 | 4233, Ac-FQSKpNVHVPcY-Bta--Hcy-RL-Aib-AKL-NH2] (Ac-FQSK[dP]NVHVP[dC]Y[Bta][hCys]RL[Aib]AKL-NH2; disulfide 11-14)
[1]
  IC50: 0.0108 µM

## Ac-SGYASFPLAVQLHVSARSKEMALARLYYKTS-NH2 (SEQ ID NO: 2136) [JBT0675]
[3]
  Extrinsic Tenase Inhibition assay | % Inhibition @ […]: 7%
[4]
  % Inhibition @ […]: 0%

## Ac-SGYASFPLAVQLHVSKRSKEMALARLAYKTS-NH2 (SEQ ID NO: 2140) [JBT0686]
[3]
  Extrinsic Tenase Inhibition assay | % Inhibition @ […]: 1%
[4]
  % Inhibition @ […]: 3%

## CCCC[C@H](NC(=O)CNC(=O)[C@H](CO)NC(=O)[C@H](Cc1ccccc1)NC(=O)[C@H](Cc1c[nH]c2ccccc12)NC(=O)[C@H](CCCCN)NC(=O)[C@H](Cc1ccc(O)cc1)NC(=O)[C@H](CCCNC(=N)N)NC(=O)[C@H](CO)NC(C)=O)C(=O)N[C@@H](CCCNC(=N)N)C(=O)N[C@@H](CC(=O)O)C(=O)N[C@@H](CCCC)C(=O)N[C@@H](CCCCN)C(=O)NCC(=O)N[C@H](C(=O)N[C@@H](CCCC)C(=O)N[C@@H](CO)C(=O)N[C@@H](CO)C(=O)N[C@H](C(=O)N[C@@H](Cc1c[nH]c2ccccc12)C(=O)N[C@H](C(=O)N[C@@H](CCCCN)C(=O)N[C@@H](Cc1ccccc1)C(N)=O)C(C)C)C(C)C)[C@@H](C)O [JBT0418 | 1210, Ac-SRYKWF SG-Nle-RD-Nle-KGT-Nle-SS VWVKF-NH2] (Ac-SRYKWFSG[Nle]RD[Nle]KGT[Nle]SSVWVKF-NH2)
[5]
  IC50: 43.9 µM

## CC(=O)N[C@@H](Cc1ccccc1)C(=O)N[C@@H](CCC(N)=O)C(=O)N[C@@H](CO)C(=O)N[C@@H](CCCCN)C(=O)NCC(=O)N[C@@H](CC(N)=O)C(=O)N[C@H](C(=O)N[C@@H](Cc1ccccc1)C(=O)N[C@H](C(=O)N[C@@H](Cc1ccccc1)C(=O)NCC(=O)N[C@@H](Cc1ccc(O)cc1)C(=O)N[C@@H](Cc1ccccc1)C(=O)N[C@@H](CCC(=O)O)C(=O)N[C@@H](CCCNC(=N)N)C(=O)N[C@@H](CC(C)C)C(=O)N[C@@H](CCCNC(=N)N)C(=O)N[C@@H](C)C(=O)N[C@@H](CCCCN)CC(=O)N[C@@H](CC(C)C)C(N)=O)C(C)C)C(C)C [JBT0533 | 424] (Ac-FQSKGNVFVFGYFERLRA[β3hK]L-NH2)
[2]
  IC50: 0.756 µM

## CC(=O)N[C@@H](Cc1ccccc1)C(=O)N[C@@H](CCC(N)=O)C(=O)N[C@@H](CO)C(=O)N[C@@H](CCCCN)C(=O)N1CCC[C@@H]1C(=O)N[C@@H](CC(N)=O)C(=O)N[C@H](C(=O)N[C@@H](Cc1cnc[nH]1)C(=O)N[C@H](C(=O)N[C@@H](CC(=O)O)C(=O)NCC(=O)N[C@@H](Cc1ccc(O)cc1)C(=O)N[C@@H](Cc1ccccc1)C(=O)N[C@@H](CCC(=O)O)C(=O)N[C@@H](CCCNC(=N)N)C(=O)N[C@@H](CC(C)C)C(=O)NC(C)(C)C(=O)N[C@@H](C)C(=O)N[C@@H](CCCCN)C(=O)N[C@@H](CC(C)C)C(N)=O)C(C)(C)C)C(C)C [JBT2431] (Ac-FQSK[dP]NVH[Tle]DGYFERL[Aib]AKL-NH2)
[6]
  remaining at 24 h: 82%

## Ac-SGYASFPLAVQLHVSKRAKEMALARLYYKTS-NH2 (SEQ ID NO: 2009) [JBT0677]
[3]
  Extrinsic Tenase Inhibition assay | % Inhibition @ […]: 2%
[4]
  % Inhibition @ […]: 4%

## CC(=O)N[C@@H](Cc1ccccc1)C(=O)N[C@@H](CCC(N)=O)C(=O)N[C@@H](CO)C(=O)N[C@@H](CCCCN)C(=O)N1CCC[C@@H]1C(=O)N[C@@H](CC(N)=O)C(=O)N[C@H](C(=O)N[C@@H](Cc1cnc[nH]1)C(=O)N[C@H](C(=O)N1CCC[C@H]1C(=O)NCC(=O)N[C@@H](Cc1ccc(O)cc1)C(=O)N[C@@H](Cc1ccccc1)C(=O)N[C@@H](CCC(=O)O)C(=O)N[C@@H](CCCNC(=N)N)C(=O)N[C@@H](CC(C)C)C(=O)NC(C)(C)C(=O)N[C@@H](C)C(=O)N[C@@H](CCCCN)C(=O)N[C@@H](CC(C)C)C(N)=O)C(C)C)C(C)C [JBT2432]
[6]
  remaining at 24 h: 76%

## CC(=O)N[C@@H](Cc1ccccc1)C(=O)N[C@@H](CCC(N)=O)C(=O)N[C@@H](CO)C(=O)N[C@@H](CCCCN)C(=O)N(C)CC(=O)N[C@@H](CC(N)=O)C(=O)N[C@H](C(=O)N[C@@H](Cc1ccccc1)C(=O)N[C@H](C(=O)N[C@@H](CC(=O)O)C(=O)NCC(=O)N[C@@H](Cc1ccc(O)cc1)C(=O)N[C@@H](Cc1ccccc1)C(=O)N[C@@H](CCC(=O)O)C(=O)N[C@@H](CCCNC(=N)N)C(=O)N[C@@H](CC(C)C)C(=O)NC(C)(C)C(=O)N[C@@H](C)C(=O)N[C@@H](CCCCN)C(=O)N[C@@H](CC(C)C)C(N)=O)C(C)C)C(C)C [JBT1584]
[6]; human plasma
  Plasma Stability (half life in minutes) human: >2 h

## CCN1C(=O)CC(SC[C@H](NC(=O)[C@H]2CCCN2C(=O)[C@H](CCCCN)NC(=O)[C@H](CO)NC(=O)[C@H](CCC(N)=O)NC(=O)[C@H](Cc2ccccc2)NC(C)=O)C(=O)N[C@H](C(=O)N[C@@H](Cc2c[nH]cn2)C(=O)N[C@H](C(=O)N[C@@H](CC(=O)O)C(=O)N[C@H](C)C(=O)N[C@@H](Cc2ccc(O)cc2)C(=O)N[C@@H](Cc2csc3ccccc23)C(=O)N[C@@H](CCC(=O)O)C(=O)N[C@@H](CCCNC(=N)N)C(=O)N[C@@H](CC(C)C)C(=O)NC(C)(C)C(=O)N[C@@H](C)C(=O)N[C@@H](CCCCN)C(=O)N[C@@H](CC(C)C)C(N)=O)C(C)(C)C)C(C)C)C1=O (stereo partly shown) [JBT2502 | 4217, Ac-FQSKp-C(NEM)-VH-Tle-DaY-Bta-ERL-Aib-AKL-NH2] (Ac-FQSK[dP]C(Succinimide(1-Et,3-yl))VH[Tle]D[dA]Y[Bta]ERL[Aib]AKL-NH2)
[1]
  IC50: 0.0041 µM

## CC(=O)N[C@@H](Cc1ccccc1)C(=O)N[C@@H](CCC(N)=O)C(=O)N[C@@H](CO)C(=O)N[C@@H](CCCCN)C(=O)NCC(=O)N[C@@H](CC(N)=O)C(=O)N[C@H](C(=O)N[C@@H](Cc1ccccc1)C(=O)N[C@H](C(=O)N[C@@H](Cc1ccccc1)C(=O)NCC(=O)N[C@@H](Cc1ccc(O)cc1)C(=O)N[C@@H](Cc1ccccc1)C(=O)N[C@@H](CCC(=O)O)C(=O)N[C@@H](CCCNC(=N)N)C(=O)N[C@@H](CC(C)C)C(=O)N[C@@H](CCCNC(=N)N)C(=O)N[C@@H](C)C(=O)N[C@@H](CCCCN)C(=O)N[C@H](CC(N)=O)CC(C)C)C(C)C)C(C)C [JBT0534 | 204] (Ac-FQSKGNVFVFGYFERLRAK[β3hL]-NH2)
[2]
  IC50: 0.084 µM

## Ac-SGYASFPLAVQLHVSKASKEMALARLYYKTS-NH2 (SEQ ID NO: 2137) [JBT0676]
[3]
  Extrinsic Tenase Inhibition assay | % Inhibition @ […]: 1%
[4]
  % Inhibition @ […]: 0%

## CC(=O)N[C@@H](Cc1ccccc1)C(=O)N[C@@H](CCC(N)=O)C(=O)N[C@@H](CO)C(=O)N[C@@H](CCCCN)C(=O)NCC(=O)N[C@@H](CC(N)=O)C(=O)NC(CC(=O)N[C@@H](Cc1ccccc1)C(=O)N[C@H](C(=O)N[C@@H](Cc1ccccc1)C(=O)NCC(=O)N[C@@H](Cc1ccc(O)cc1)C(=O)N[C@@H](Cc1ccccc1)C(=O)N[C@@H](CCC(=O)O)C(=O)N[C@@H](CCCNC(=N)N)C(=O)N[C@@H](CC(C)C)C(=O)N[C@@H](CCCNC(=N)N)C(=O)N[C@@H](C)C(=O)N[C@@H](CCCCN)C(=O)N[C@@H](CC(C)C)C(N)=O)C(C)C)C(C)C (stereo partly drawn) [JBT0521 | 756] (Ac-FQSKGN[ξβ3hV]FVFGYFERLRAKL-NH2)
[2]
  IC50: > 5 µM
